Some test systems named below: CCRF-CEM; SNB-75; NCI/ADR-RES; SK-OV-3; OVCAR-8; TK-10; UACC-257; Hs-578T; NCI-H226; A549; NCI-H522; HCT-116; 786-0; SR; SF-268; NCI-H460; SF-295; RPMI-8226; MDA-N; SK-MEL-5.
What all share (assay): inhibition of tumour cell growth, NCI panel, 48 h

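Results reflect a 48-hour exposure of cells in 96-well plates to compound at five concentrations. GI50 = concentration required for 50% inhibition of growth.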 Activity calls are given as the source filed them. No stated cut-off is given here; in the data, active = GI50 up to about 1.1 µM and inactive = higher.

The text below walks through data of ChEMBL document CHEMBL1201862, “PubChem BioAssay data set” (2004).

Take `COC1=CC(=O)c2c(cc(COP(N)(=O)N(CCCl)CCCl)n2C)C1=O` (configuration not stated): the GI50 was < 0.0256 µM (active) in the experiment on CCRF-CEM; 0.955 µM (active) in the experiment with SNB-75; 3.29 µM (inactive) with NCI/ADR-RES; 1.02 µM (active) with SK-OV-3; 0.433 µM (active) with OVCAR-8; 1.67 µM (inactive) in the experiment on TK-10. The GI50 with UACC-257 was 3.28 µM (inactive); in the experiment on Hs-578T, 8.26 µM (inactive); in the experiment on NCI-H226, 0.14 µM (active); in the experiment on A549, 0.918 µM (active); with NCI-H522, 0.0746 µM (active); in the experiment on HCT-116, 0.122 µM (active). The GI50 was 0.0277 µM (active) with 786-0; 0.0603 µM (active) with SR; < 0.032 µM (active) in the experiment with SF-268; 0.123 µM (active) with NCI-H460; 0.189 µM (active) with SF-295; 1.37 µM (inactive) with RPMI-8226. Further, the figures for the GI50 in the experiment on MDA-N and in the experiment on SK-MEL-5 were 1.61 µM (inactive) and 1.36 µM (inactive), respectively.

On to `O=C(CCCCCNC(=O)c1ccc(Cl)cc1)NO`, for which the GI50 in the experiment with CCRF-CEM is 2.42 µM (inactive); with SNB-75 it was 1.49 µM (inactive); in the experiment on NCI/ADR-RES, 1.15 µM (inactive); in the experiment on SK-OV-3, 6.38 µM (inactive); in the experiment on OVCAR-8, 3.41 µM (inactive); with TK-10, 3.49 µM (inactive). Further, the GI50 in the experiment with UACC-257 was 2.72 µM (inactive); in the experiment with Hs-578T it was 8.99 µM (inactive); in the experiment on NCI-H226 it was 15.8 µM (inactive); in the experiment on A549, 8.24 µM (inactive); in the experiment with NCI-H522, 2.19 µM (inactive); in the experiment on HCT-116 it was 2.56 µM (inactive). Besides, the GI50 was 7.03 µM (inactive) in the experiment with 786-0; 2.54 µM (inactive) with SR; 6.87 µM (inactive) in the experiment with SF-268; 4.07 µM (inactive) with NCI-H460; 8.91 µM (inactive) in the experiment on SF-295; 3.09 µM (inactive) in the experiment on RPMI-8226. For the same compound, the GI50 is 2.96 µM (inactive) with MDA-N and 3.24 µM (inactive) with SK-MEL-5.

In the case of `COc1ccccc1/C=C/C1=NN(c2cccc(S(=O)(=O)O)c2)C2(C1)C(Cl)C(=O)N2c1nc2ccccc2s1` (configuration not stated), the GI50 was 13.5 µM (inactive) with CCRF-CEM; 42.8 µM (inactive) with SNB-75; > 100 µM (inactive) in the experiment with NCI/ADR-RES; > 100 µM (inactive) with SK-OV-3; > 51.4 µM (inactive) with OVCAR-8; 45.1 µM (inactive) in the experiment on TK-10. Besides, the GI50 in the experiment on UACC-257 was 56.8 µM (inactive); with Hs-578T, > 100 µM (inactive); in the experiment with NCI-H226 it was 28 µM (inactive); with A549 it was 71.4 µM (inactive); in the experiment with NCI-H522, 9.04 µM (inactive); in the experiment on HCT-116 it was 61.9 µM (inactive). The GI50 in the experiment with 786-0 was 37.8 µM (inactive); in the experiment on SR, 22.1 µM (inactive); in the experiment on SF-268, > 100 µM (inactive); with NCI-H460, 37.8 µM (inactive); in the experiment on SF-295, 89.3 µM (inactive); with RPMI-8226, 19 µM (inactive). The GI50 in the experiment on MDA-N was 85.3 µM (inactive); in the experiment with SK-MEL-5, 28.6 µM (inactive).

Regarding `CCCCCNC1=CC(=O)c2ccccc2C1=O`, the GI50 with CCRF-CEM was > 100 µM (inactive); in the experiment on SNB-75, 22.2 µM (inactive); with NCI/ADR-RES, 45.3 µM (inactive); in the experiment with SK-OV-3 it was > 51.4 µM (inactive); in the experiment on OVCAR-8, 23 µM (inactive); in the experiment with TK-10, 30.2 µM (inactive). In addition, the GI50 in the experiment on UACC-257 was > 60.5 µM (inactive); in the experiment on Hs-578T, 27.8 µM (inactive); in the experiment on NCI-H226, 31.6 µM (inactive); in the experiment with A549, 42.8 µM (inactive); in the experiment on NCI-H522, 19.7 µM (inactive); in the experiment with HCT-116, 22.9 µM (inactive). Moreover, the GI50 was 18.4 µM (inactive) in the experiment on 786-0; 46.6 µM (inactive) in the experiment with SR; 25.1 µM (inactive) in the experiment with SF-268; 34.5 µM (inactive) in the experiment on NCI-H460; 26.3 µM (inactive) in the experiment with SF-295; > 91.8 µM (inactive) in the experiment with RPMI-8226. The GI50 in the experiment on MDA-N is > 100 µM (inactive); in the experiment on SK-MEL-5, 17.9 µM (inactive).

With `COC(=O)C(Cc1c(C2Nc3ccccc3C2CC(NC(=O)CNC(C)=O)C(=O)OC)[nH]c2ccccc12)NC(=O)CNC(C)=O` (configuration not stated), the GI50 with CCRF-CEM was > 100 µM (inactive); in the experiment with SNB-75 it was 7.82 µM (inactive); in the experiment with NCI/ADR-RES it was > 100 µM (inactive); in the experiment with SK-OV-3, > 100 µM (inactive); in the experiment with OVCAR-8 it was > 100 µM (inactive); in the experiment with TK-10, > 100 µM (inactive). Further, the GI50 in the experiment on UACC-257 is > 100 µM (inactive); in the experiment on Hs-578T, > 72.6 µM (inactive); with NCI-H226 it was > 100 µM (inactive); in the experiment with A549, > 100 µM (inactive); in the experiment on NCI-H522, > 100 µM (inactive); with HCT-116, > 100 µM (inactive). Besides, the GI50 in the experiment with 786-0 was > 100 µM (inactive); in the experiment with SR, 16.3 µM (inactive); in the experiment with SF-268 it was > 100 µM (inactive); in the experiment with NCI-H460, > 100 µM (inactive); with SF-295 it was > 100 µM (inactive); in the experiment with RPMI-8226, > 100 µM (inactive). Also, the GI50 in the experiment with MDA-N and in the experiment with SK-MEL-5 was > 100 µM (inactive) each time.

For the compound `COC(=O)NNC(c1ccc(Cl)cc1)c1ccc(Cl)cc1`, the GI50 is 17.1 µM (inactive) with CCRF-CEM; 26.2 µM (inactive) with SNB-75; 18.2 µM (inactive) in the experiment on NCI/ADR-RES; 23.7 µM (inactive) with SK-OV-3; 19.1 µM (inactive) with OVCAR-8; 17.6 µM (inactive) in the experiment on TK-10. The GI50 is 18.2 µM (inactive) in the experiment with UACC-257; 20.4 µM (inactive) in the experiment with Hs-578T; 17.3 µM (inactive) in the experiment with NCI-H226; 15.3 µM (inactive) in the experiment on A549; 19.6 µM (inactive) with NCI-H522; 15.7 µM (inactive) in the experiment on HCT-116. The GI50 in the experiment with 786-0 was 17.1 µM (inactive); with SR, 20.2 µM (inactive); in the experiment on SF-268, 21.8 µM (inactive); in the experiment with NCI-H460, 16.5 µM (inactive); in the experiment with RPMI-8226, 20.9 µM (inactive); in the experiment with MDA-N, 22.3 µM (inactive). In addition, in the experiment with SK-MEL-5, the GI50 is 16.5 µM (inactive).

With `O=C(/N=S(/NC(=O)c1ccccc1)C(Cl)(Cl)Cl)c1ccccc1` (configuration not stated), the GI50 with CCRF-CEM was 2.7 µM (inactive); in the experiment with SNB-75, 40.6 µM (inactive); in the experiment with NCI/ADR-RES it was 15.5 µM (inactive); in the experiment with SK-OV-3, > 31.6 µM (inactive); in the experiment with OVCAR-8 it was 15.5 µM (inactive); in the experiment with TK-10, > 100 µM (inactive). The GI50 with UACC-257 is 35.2 µM (inactive); with Hs-578T, 40.6 µM (inactive); with NCI-H226 it was 25.6 µM (inactive); in the experiment with A549, > 56.9 µM (inactive); with NCI-H522, 30.3 µM (inactive); in the experiment on HCT-116, 15.5 µM (inactive). The GI50 was 28.1 µM (inactive) with 786-0; 17.1 µM (inactive) in the experiment on SR; 50.2 µM (inactive) in the experiment with SF-268; 30.5 µM (inactive) with NCI-H460; 9.25 µM (inactive) in the experiment on SF-295; 41.2 µM (inactive) with RPMI-8226. For the same compound, the GI50 in the experiment on MDA-N was 29.8 µM (inactive); with SK-MEL-5 it was 14.3 µM (inactive).

Regarding `Cn1c(=O)nc2n(CCO)c(-c3ccccc3)c(-c3ccccc3)nc-2c1=O`, the GI50 in the experiment with CCRF-CEM, in the experiment on SNB-75, with NCI/ADR-RES, in the experiment with SK-OV-3, with OVCAR-8 and in the experiment with TK-10 was > 100 µM (inactive) each time. The GI50 is > 100 µM (inactive) with UACC-257; 86.3 µM (inactive) in the experiment with Hs-578T; > 100 µM (inactive) in the experiment on NCI-H226; > 100 µM (inactive) in the experiment on A549; > 100 µM (inactive) in the experiment on NCI-H522; > 100 µM (inactive) in the experiment with HCT-116. Moreover, the GI50 in the experiment with 786-0 is > 100 µM (inactive); in the experiment on SR it was > 100 µM (inactive); with SF-268, > 100 µM (inactive); in the experiment with NCI-H460, 39.1 µM (inactive); in the experiment on SF-295, > 100 µM (inactive); with RPMI-8226, > 100 µM (inactive). Further, the GI50 in the experiment with MDA-N and with SK-MEL-5 was > 100 µM (inactive) each time.

As for `Cc1ccc(C(O)c2cnc(C)n2Cc2ccccc2)cc1` (configuration not stated), the GI50 in the experiment with SNB-75 was > 100 µM (inactive); in the experiment on NCI/ADR-RES, 85.3 µM (inactive); with SK-OV-3 it was > 100 µM (inactive); with OVCAR-8, > 100 µM (inactive); with TK-10, > 100 µM (inactive); with UACC-257, 67.1 µM (inactive). In addition, the GI50 with Hs-578T, in the experiment with NCI-H226, in the experiment on A549, with NCI-H522, with HCT-116 and with 786-0 was > 100 µM (inactive) in each case. Further, the GI50 in the experiment on SR was > 100 µM (inactive); with SF-268, > 100 µM (inactive); in the experiment with NCI-H460, > 100 µM (inactive); in the experiment with SF-295, > 100 µM (inactive); in the experiment with RPMI-8226 it was 46 µM (inactive); with MDA-N, > 100 µM (inactive). In addition, the GI50 with SK-MEL-5 was 79.1 µM (inactive).

Regarding `CCOC(=O)[C@@H]1[C@@H]2NC(=O)N[C@@]1(C)Oc1ccccc12`, the GI50 in the experiment on CCRF-CEM, in the experiment with SNB-75, in the experiment with NCI/ADR-RES, in the experiment on SK-OV-3, with OVCAR-8 and in the experiment on TK-10 was > 100 µM (inactive) throughout. The GI50 with UACC-257, with Hs-578T, with NCI-H226, with NCI-H522, with HCT-116 and in the experiment with 786-0 was > 100 µM (inactive) in each case. Moreover, the GI50 in the experiment on SR, in the experiment with SF-268, with NCI-H460, in the experiment with SF-295, with RPMI-8226 and in the experiment with MDA-N was > 100 µM (inactive) in each case. The GI50 with SK-MEL-5 is > 100 µM (inactive).
